Test results taken from PMC11073428, “The activity of pyrazolo[4,3-e][1,2,4]triazine and pyrazolo[4,3-e]tetrazolo[1,5-b][1,2,4]triazine sulphonamide derivatives in monolayer and spheroid breast cancer cell cultures” (Journal of Enzyme Inhibition and Medicinal Chemistry, 2024).
Where two headings read alike, the source gives them in different places.

What was measured:
[1] = test system: MCF-7 breast cancer cells; assay: Apoptosis, annexin V-FITC/PI flow cytometry, MCF-7; type: cell-based, human; settings: 24 h; for early and late apoptotic cells: MCF-7, 0.5 µM
Experimental: (§1) The analysis was performed using flow cytometry Apoptosis Detection Kit II (BD Biosciences, San Diego, CA) as described previously.

[2] = test system: MDA-MB-231 breast cancer cells; assay: Apoptosis, annexin V-FITC/PI flow cytometry, MDA-MB-231; type: cell-based, human; settings: 24 h; for early and late apoptotic cells: MDA-MB-231, 0.5 µM
Experimental: as §1

[3] = test system: Bax in MCF-7 cells; assay: Anti-Bax antibody flow cytometry, MCF-7; type: cell-based, human; settings: MCF-7, 24 h
Experimental: (§2) To evaluate the molecular mechanism of induction of apoptosis of tested compounds, the level of p53, NF-κB, mTOR, Bax, and beclin-1 was measured using appropriate antibody according to the manufacturer’s instruction. In brief, tryspinised cells were centrifuged, then supernatant was discarded, and cells were suspended in 4% FA (formaldehyde). Prepared samples were incubated 15 min at RT. Following incubation, the 2.5 mL PBS was added to each sample and centrifuged. Then, supernatant was discarded, and cells were resuspended in 90% ice-cold methanol to perform permeabilisation and left for 1 h in ice. To remove methanol, cells were rinsed with excess PBS by centrifugation. Following centrifugation, the supernatant was discarded. Then, cells were resuspended in 100 µL of appropriate diluted (1:100 in PBS) antibody conjugate (p53 (7F5) Rabbit mAb – Alexa Fluor 488 Conjugate #5429 Cell Signalling Technology, Danvers, MA; NF-κB p65 (D14E12) XP Rabbit mAb – Alexa Fluor 647 Conjugate #8801 Cell Signalling Technology, Danvers, MA; mTOR (7C10) Rabbit mAB – Alexa Fluor 647 #5048 Cell Signalling Technology, Danvers, MA; FITC Anti-Bax antibody (T22-A) #ab139543, Abcam, Cambridge, UK) and incubated 1 h in the dark at RT. Afterwards, cells were washed by centrifugation in 2 mL of incubation buffer. Finally, supernatant was removed and 300 µL PBS was added to each sample and pipetted. The analysis was performed by flow cytometry (BD FACSCanto II, Becton Dickinson Biosciences Systems, San Jose, CA) using FACSDiva software ver. 6.1.3.

[4] = test system: Bax in MDA-MB-231 cells; assay: Anti-Bax antibody flow cytometry, MDA-MB-231; type: cell-based, human; settings: MDA-MB-231, 24 h
Experimental: as §2

[5] = test system: beclin-1 in MCF-7 cells; assay: Anti-beclin-1 antibody flow cytometry, MCF-7; type: cell-based, human; settings: MCF-7, 0.5 µM, 24 h
Experimental: (§3) The fixation and permeabilisation were performed as described above. Cells were resuspended in 100 µL of diluted primary antibody (1:100 in PBS, anti-beclin 1 antibody (2A4) #ab114071, Abcam, Cambridge, UK) and incubated 30 min in the dark at RT. The cells were washed three times by centrifugation in PBS. Then to each probe, 100 µL of diluted fluorochrome-labelled secondary antibody (1:100 in PBS; goat anti-mouse IgG H&L – Alexa Fluor 488 #ab150113, Abcam, Cambridge, UK) was added and incubated 30 min in dark at RT. Then, cells were rinsed with 2.5 mL PBS. In the last step, supernatant was discarded and cells were resuspended in 300 µL PBS and pipetted. The analysis was carried out by flow cytometry.

[6] = test system: beclin-1 in MDA-MB-231 cells; assay: Anti-beclin-1 antibody flow cytometry, MDA-MB-231; type: cell-based, human; settings: MDA-MB-231, 0.5 µM, 24 h
Experimental: as §3

[7] = test system: MCF-7 spheroids; assay: 3D spheroid culture, MCF-7; type: cell-based, human; settings: 0.25 µM and 0.5 µM
Experimental: (§4) The 3D cell culture was carried out with 6-Well Bio-Assembler Kit in accordance with the manufacturer’s instructions (Greiner Bio-One GmbH, Frickenhausen, Germany). First, MCF-7 and MDA-MB-231 were cultured in 2D using procedure and supplied to 80% confluency and treated with nanoshuttle at concentration of 1 µL/10 000 cell and incubated overnight. Following incubation, the medium was removed, and the cells were detached by trypsin–EDTA solution and resuspended in DMEM. The cells were counted using Scepter 2.0 Handheld Automated Cell Counter (Merck, Darmstadt, Germany) and plated at the concentration 1 × 10^6 cells per well in six-well plate. Then, cells were gently tilted in the flask to evenly distribute the nanoparticle and incubated (37 °C, 5% CO2, 95–98% humidity) for 1 h with magnet on the top of the plate. The cells self-assemble to spheroids. The obtained 3D cell culture was incubated until analysis.
(§5) The visualisation of the morphological changes in 3D cell culture of MCF-7 and MDA-MB-231 was evaluated using microscope (Nikon Eclipse Ti, Tokyo, Japan).
(§6) The mean ± standard deviation (SD) for all data is presented. One-way and two-way analysis of variance (ANOVA) was conducted followed by Dunnett’s test. GraphPad 8.0.1 Prism software (GraphPad Software, San Diego, CA) was used for calculation. The analysis of spheroids area was carried out using ImageJ software from the NIH (Bethesda, MD).

[8] = test system: MDA-MB-231 spheroids; assay: 3D spheroid culture, MDA-MB-231; type: cell-based, human; settings: 0.25 µM and 0.5 µM
Experimental: as §4, §5, §6

[9] = test system: MCF-7 breast cancer cells; design: method as in PMID 27488500; settings: 24 h incubation; read-out: IC50 in MCF-7 (previous studies); cited from earlier work
[10] = test system: MDA-MB-231 breast cancer cells; design: method as in PMID 27488500; settings: 24 h incubation; read-out: IC50 in MDA-MB-231 (previous studies); cited from earlier work
[11] = test system: MCF-10A normal breast cells; design: method as in PMID 32575817; settings: 24 h incubation; read-out: IC50 in MCF-10A (previous studies); cited from earlier work
[12] = in vitro; settings: human
[13] = test system: MCF-7 breast cancer cells; assay: MTT viability assay, MCF-7; settings: for IC50: Homo sapiens, MCF7, 24 h, read-out: Cytotoxicity IC50 MCF-7
Experimental: (§7) Following 24-h incubation with tested compounds, the medium was discarded from the cell cultures. Then, into each well with cells was added 1 mL of PBS and 50 µL of MTT solution (5 mg per mL). Cells were incubated at 37 °C and 5% CO2 in humidified atmosphere for a defined time appropriate for each cell line. After incubation, the solution above the cells was removed and obtained purple formazan crystals were dissolved in 1 mL DMSO. The absorbance was read at OD = 570 nm on Evolution 201 Spectrophotometer (Thermo Scientific, Waltham, MA).

[14] = test system: MDA-MB-231 breast cancer cells; assay: MTT viability assay, MDA-MB-231; settings: for IC50: Homo sapiens, MDA-MB-231, 24 h, read-out: Cytotoxicity IC50 MDA-MB-231
Experimental: as §7

[15] = ratio of cytotoxicity, 3a vs 2a, 3b vs 2b

Row | melting point [°C] | IC50 at 24 h [12] [µM] | Structure (SMILES) | early and late apoptotic cells [1] [%] | early and late apoptotic cells [2] [%] | number of cells with active Bax (in words) [3] | number of cells with active Bax (in words) [4] | cells with active beclin-1 [5] [%] | cells with active beclin-1 [6] [%] | effect on spheroid formation (in words) [7] | effect on spheroid formation (in words) [8] | IC50 [9] [µM] | IC50 [10] [µM] | IC50 [11] [µM] | IC50 [13] [µM] | IC50 [14] [µM] | apoptotic cells ([1]; MCF-7, 0.25 µM) [%] | apoptotic cells ([2]; MDA-MB-231, 0.25 µM) [%] | times stronger than the corresponding sulphonyl derivative (2a or 2b), MCF-7 [13, 15] [times] | times stronger than the corresponding sulphonyl derivative (2a or 2b), MDA-MB-231 [14, 15] [times]
1 |  |  | N.N.[Cl][Pt][Cl] [Cisplatin, cisplatin, reference compound] | 7.1 ± 0.9 | 7.6 ± 0.6 | at the control level | at the control level | 4.1 ± 0.5 | 3.6 ± 0.7 | slightly affected growth of spheroids | slightly affected growth of spheroids | 93 | 82 | > 100 |  |  |  |  |  | 
2 | 130 to 134 | > 10 | Cc1nn(-c2ccc(S(=O)(=O)N[C@H](CO)Cc3ccccc3)cc2)c2nnc(S(C)(=O)=O)nc12 [Compound 2a, (S)-N-(1-Hydroxy-3-phenylpropan-2-yl)-4-(3-methyl-5-(methylsulfonyl)-1H-pyrazolo[4,3-e][1,2,4]triazin-1-yl)benzenesulfonamide] |  |  |  |  |  |  |  |  |  |  |  | 6 ± 0.38 | 9.2 ± 0.78 |  |  |  | 
3 | 124 to 128 | > 10 | Cc1nn(-c2ccc(S(=O)(=O)N[C@@H](CO)Cc3ccccc3)cc2)c2nnc(S(C)(=O)=O)nc12 [Compound 2b, (R)-N-(1-Hydroxy-3-phenylpropan-2-yl)-4-(3-methyl-5-(methylsulfonyl)-1H-pyrazolo[4,3-e][1,2,4]triazin-1-yl)benzenesulfonamide] | 14.6 ± 1.7 | 5.8 ± 1.8 |  |  |  |  | slower formation of spheroids compared to untreated cells | slower formation of spheroids compared to untreated cells |  |  |  | 5.5 ± 0.39 | 7.8 ± 0.53 | 9.8 ± 1.2 | 5.7 ± 0.6 |  | 
4 | 172 to 176 | 3.5 ± 0.18 | Cc1nn(-c2ccc(S(=O)(=O)N[C@H](CO)Cc3ccccc3)cc2)c2nn3nnnc3nc12 [Compound 3a, (S)-N-(1-Hydroxy-3-phenylpropan-2-yl)-4-(7-methyl-5H-pyrazolo[4,3-e]tetrazolo[1,5-b][1,2,4]triazin-6-yl)benzenesulfonamide] |  |  |  |  |  |  |  |  |  |  |  | 0.35 ± 0.08 | 0.71 ± 0.14 |  |  | 17 | ~13
